Measurements from US9521847B2, “Synergistic weed control from applications of pyridine carboxylic acid herbicides and synthetic auxin herbicides and/or auxin transport inhibitors” (Dow AgroSciences LLC, priority 2014, dated 2016).
Several values for one entry are separate records, joined by “and”; a condition that tells them apart may be missing. Identical values can stand only once. Like-named read-outs stand apart in the source and are kept apart here.

Legend:
[1] = system: pigweed (AMARE, Amaranthus retroflexus); assay: Greenhouse postemergence trial, % visual injury; assay type: in vivo; settings: AMARE
[2] = system: winter rape (BRSNW, Brassica napus); assay: Greenhouse postemergence trial, % visual injury; assay type: in vivo; settings: for % visual injury, Obs: BRSNW
[3] = system: common lambsquarters (CHEAL, Chenopodium album L.); assay: Greenhouse postemergence trial, % visual injury; assay type: in vivo; settings: CHEAL
[4] = system: kochia (KCHSC, Kochia scoparia); assay: Greenhouse postemergence trial, % visual injury; assay type: in vivo; settings: for % visual injury, Obs.: Table 61
Protocol: Following the protocol in Example 1, compound 1 and compound 2 were combined with 2,4 D EHE (EC) and applied to kochia (KCHSC, Kochia scoparia) and the phytotoxicity of the herbicidal compositions was measured.
Following the protocol in Example 1, compound 1 (EC) and Compound 2 (SC) were combined with diflufenzopyr and applied to kochia (Kochia scoparia, KCHSC) and the phytotoxicity of the herbicidal composition was measured.

[5] = system: velvetleaf (Abutilon theophrasti, ABUTH); assay: Greenhouse postemergence trial, % visual injury; assay type: in vivo; settings: Abutilon theophrasti, post-emergence, read-out: % visual injury, Obs; for pest or weed control at 5 g/ha / pest or weed control at 10 g/ha: ABUTH
[6] = system: nutsedge (Cyperus esculentus, CYPES); assay: Greenhouse postemergence trial, % visual injury; assay type: in vivo; settings: CYPES
[7] = system: wild buckwheat (Polygonum convolvulus, POLCO); assay: Greenhouse postemergence trial, % visual injury; assay type: in vivo
[8] = system: grain sorghum (Sorghum vulgare, SORVU); assay: Greenhouse postemergence trial, % visual injury; assay type: in vivo; settings: SORVU
[9] = system: black mustard (Brassica nigra, BRSNI); assay: Greenhouse postemergence trial, % visual injury; assay type: in vivo
[10] = system: turnip (Brassica rapa, BRSRR); assay: Greenhouse postemergence trial, % visual injury; assay type: in vivo
[11] = system: wild radish (Raphanus raphanistrum, RAPRA); assay: Greenhouse postemergence trial, % visual injury; assay type: in vivo
[12] = system: Russian thistle (Salsola iberica, SASKR); assay: Greenhouse postemergence trial, % visual injury; assay type: in vivo; settings: SASKR
[13] = system: wild mustard (Sinapis arvensis, SINAR); assay: Greenhouse postemergence trial, % visual injury; assay type: in vivo; settings: for % visual injury, Obs: SINAR
[14] = system: Indian hedge mustard (Sisymbrium orientale, SSYOR); assay: Greenhouse postemergence trial, % visual injury; assay type: in vivo
[15] = system: blackgrass (Alopecurus myosuroides, ALOMY); assay: Greenhouse postemergence trial, % visual injury; assay type: in vivo
[16] = system: wild oat (Avena fatua, VEFA); assay: Greenhouse postemergence trial, % visual injury; assay type: in vivo; settings: AVEFA
[17] = system: large crabgrass (Digitaria sanguinalis, DIGSA); assay: Greenhouse postemergence trial, % visual injury; assay type: in vivo; settings: DIGSA
winter wheat (TRZAW) [18] = settings: winter wheat (Triticum aestivum), in vivo
maize (ZEAMX) [19] = settings: maize (Zea mays), in vivo
[20] = system: spring rape (Brassica napus, BRSNN); assay: Greenhouse postemergence trial, % visual injury; settings: for % visual injury, Obs: BRSNN
[21] = system: poinsettia (Euphorbia heterophylla, EPHHL); assay: Greenhouse postemergence trial, % visual injury; settings: Euphorbia heterophylla, post-emergence
[22] = system: wild pansy (Viola tricolor, VIOTR); assay: Greenhouse postemergence trial, % visual injury; settings: for % visual injury, Obs: VIOTR
[23] = system: ivyleaf morningglory (Ipomoea hederacea, IPOHE); assay: Greenhouse postemergence trial, % visual injury; settings: Ipomoea, post-emergence
[24] = system: sunflower (Helianthus annus, HELAN); assay: Greenhouse postemergence trial, % visual injury; assay type: in vivo; settings: HELAN; 2,3,5-TIBA 140 g ai/ha
[25] = system: Chinese kale (Brassica alboglabra, BRSAG); assay: Greenhouse postemergence trial, % visual injury; assay type: in vivo; settings: BRSAG; 2,3,5-TIBA 140 g ai/ha
[26] = system: brown mustard (Brassica juncea, BRSJU); assay: Greenhouse postemergence trial, % visual injury; assay type: in vivo; settings: BRSJU; 2,3,5-TIBA 140 g ai/ha
[27] = system: Roundup Ready rape (Brassica napus, BRSNN-RR); assay: Greenhouse postemergence trial, % visual injury; assay type: in vivo; settings: 2,3,5-TIBA 140 g ai/ha
winter wheat (TRZAW) [28] = assay: Greenhouse postemergence trial, crop phytotoxicity (% visual injury); settings: TRZAW; 2,3,5-TIBA 140 g ai/ha
maize (ZEAMX) [29] = assay: as above; settings: ZEAMX; 2,3,5-TIBA 140 g ai/ha
common rice (ORYSA) = assay: as above; settings: ORYSA; 2,3,5-TIBA 140 g ai/ha
[30] = Brassica napus, post-emergence, read-out: % visual injury, Obs

Nc1c(F)c(-c2ccc3cc[nH]c3c2F)nc(C(=O)OCc2ccccc2)c1Cl [compound 2]
% visual injury, Obs ([1]; 5 g ae/ha): 88% and 65% | % visual injury, Obs ([1]; 10 g ae/ha): 100% and 60% | % visual injury, Obs ([1]; compound 2 (EC) 5 g ae/ha): 88% | % visual injury, Obs ([1]; compound 2 (EC) 10 g ae/ha): 100% | % visual injury, Obs ([2]; 5 g ae/ha): 30% | % visual injury, Obs ([2]; 10 g ae/ha): 50% | % visual injury (Obs) ([2]; compound 2 SC 5 g ae/ha): 50% | % visual injury (Obs) ([2]; compound 2 SC 10 g ae/ha): 50% | % visual injury, Obs ([3]; 5 g ae/ha): 88% | % visual injury, Obs ([3]; 10 g ae/ha): 99% | % visual injury Obs ([4]; 8.75 g ae/ha alone, 20-22 d): 55% | pest or weed control at 5 g/ha ([4]; Bassia scoparia, post-emergence, KCHSC, 5 g ae/ha, read-out: % visual injury, Obs): 30% | pest or weed control at 10 g/ha ([4]; Bassia scoparia, post-emergence, KCHSC, 10 g ae/ha, read-out: % visual injury, Obs): 75% | % visual injury, Obs. ([4]; KCHSC, compound 2 (SC) 8.75 g ae/ha): 84% | % visual injury, Obs. ([4]; KCHSC, compound 2 (SC) 17.5 g ae/ha): 86% | pest or weed control at 5 g/ha ([5]; 5 g ae/ha): 78% | pest or weed control at 10 g/ha ([5]; 10 g ae/ha): 95% | pest or weed control at 5 g/ha ([5]; compound 2 (EC) 5 g ae/ha): 78% | pest or weed control at 10 g/ha ([5]; compound 2 (EC) 10 g ae/ha): 95% | % visual injury, Obs ([6]; 5 g ae/ha): 5% | % visual injury, Obs ([6]; 10 g ae/ha): 10% | % visual injury, Obs ([6]; compound 2 (EC) 5 g ae/ha): 5% | % visual injury, Obs ([6]; compound 2 (EC) 10 g ae/ha): 10% | % visual injury (Obs) ([7]; compound 2 SC 5 g ae/ha): 30% | % visual injury (Obs) ([7]; compound 2 SC 10 g ae/ha): 50% | % visual injury, Obs ([8]; 5 g ae/ha): 38% | % visual injury, Obs ([8]; 10 g ae/ha): 63% | % visual injury (Obs) ([9]; compound 2 SC 2.5 g ae/ha): 30% | % visual injury (Obs) ([9]; compound 2 SC 5 g ae/ha): 70% | % visual injury (Obs) ([10]; compound 2 SC 2.5 g ae/ha): 23% | % visual injury (Obs) ([10]; compound 2 SC 5 g ae/ha): 67% | % visual injury (Obs) ([11]; compound 2 SC 2.5 g ae/ha): 17% | % visual injury (Obs) ([11]; compound 2 SC 5 g ae/ha): 25% | % visual injury, Obs ([12]; 5 g ae/ha): 10% | % visual injury, Obs ([12]; 10 g ae/ha): 10% | % visual injury, Obs ([13]; 5 g ae/ha): 95% | % visual injury, Obs ([13]; 10 g ae/ha): 100% | % visual injury (Obs) ([13]; compound 2 SC 2.5 g ae/ha): 87% | % visual injury (Obs) ([13]; compound 2 SC 5 g ae/ha): 100% and 94% | % visual injury (Obs) ([13]; compound 2 SC 10 g ae/ha): 100% | % visual injury (Obs) ([14]; compound 2 SC 2.5 g ae/ha): 20% | % visual injury (Obs) ([14]; compound 2 SC 5 g ae/ha): 40% | % visual injury, Obs ([15]; 5 g ae/ha): 0% | % visual injury, Obs ([15]; 10 g ae/ha): 0% | % visual injury, Obs ([16]; 5 g ae/ha): 0% | % visual injury, Obs ([16]; 10 g ae/ha): 0% | % visual injury, Obs ([17]; compound 2 (EC) 5 g ae/ha): 28% | % visual injury, Obs ([17]; compound 2 (EC) 10 g ae/ha): 53% | pest or weed control at 5 g/ha ([17]; Digitaria sanguinalis, post-emergence, 5 g ae/ha, read-out: % visual injury, Obs): 28% | pest or weed control at 10 g/ha ([17]; Digitaria sanguinalis, post-emergence, 10 g ae/ha, read-out: % visual injury, Obs): 53% | % visual injury, Obs (winter wheat (TRZAW) [18]): 3% | % visual injury, Obs (maize (ZEAMX) [19]): 3% | % visual injury, Obs ([20]; compound 2 (EC) 5 g ae/ha): 30% | % visual injury, Obs ([20]; compound 2 (EC) 10 g ae/ha): 55% | plant injury at 5 g/ha [20, 30]: 30% | plant injury at 10 g/ha [20, 30]: 55% | pest or weed control at 5 g/ha ([21]; read-out: % visual injury, Obs, EPHHL, 5 g ae/ha): 35% | pest or weed control at 10 g/ha ([21]; read-out: % visual injury, Obs, EPHHL, 10 g ae/ha): 75% | pest or weed control at 5 g/ha ([21]; read-out: % visual injury, Obs, EPHHL, compound 2 (EC) 5 g ae/ha): 35% | pest or weed control at 10 g/ha ([21]; read-out: % visual injury, Obs, EPHHL, compound 2 (EC) 10 g ae/ha): 75% | % visual injury, Obs ([22]; 5 g ae/ha): 15% | % visual injury, Obs ([22]; 10 g ae/ha): 40% | % visual injury, Obs ([22]; compound 2 (EC) 5 g ae/ha): 15% | % visual injury, Obs ([22]; compound 2 (EC) 10 g ae/ha): 40% | % visual injury (Obs) ([22]; compound 2 SC 2.5 g ae/ha): 13% | % visual injury (Obs) ([22]; compound 2 SC 5 g ae/ha): 23% | pest or weed control at 5 g/ha ([23]; read-out: % visual injury, Obs, IPOHE, 5 g ae/ha): 10% | pest or weed control at 10 g/ha ([23]; read-out: % visual injury, Obs, IPOHE, 10 g ae/ha): 20% | pest or weed control at 5 g/ha ([23]; read-out: % visual injury, Obs, IPOHE, compound 2 (EC) 5 g ae/ha): 10% | pest or weed control at 10 g/ha ([23]; read-out: % visual injury, Obs, IPOHE, compound 2 (EC) 10 g ae/ha): 20%

O=C(O)c1cc(I)cc(I)c1I [2,3,5-TIBA, 2,3,5-triiodobenzoic acid, reference compound]
% visual injury, Obs ([2]; 2,3,5-TIBA 140 g ai/ha): 0% | pest or weed control at 140 g/ha [5]: 0% | % visual injury, Obs [24]: 0% | % visual injury, Obs ([7]; POLCO, 2,3,5-TIBA 140 g ai/ha): 0% | % visual injury, Obs ([10]; BRSRR, 2,3,5-TIBA 140 g ai/ha): 20% | % visual injury, Obs [25]: 0% | % visual injury, Obs [26]: 10% | % visual injury, Obs [27]: 0% | plant injury at 140 g/ha [20, 30]: 5% | % visual injury, Obs ([22]; 2,3,5-TIBA 140 g ai/ha): 0% | % visual injury, Obs (winter wheat (TRZAW) [28]): 0% | % visual injury, Obs (maize (ZEAMX) [29]): 0% | % visual injury, Obs (common rice (ORYSA)): 0%
